{"source": "patent US20250049776A1", "about": "“AUTOPHAGY INDUCING COMPOUNDS AND USES THEREOF, IN PARTICULAR FOR A SYSTEMIC TREATMENT OF DISEASES AND CONDITIONS” (Samsara Therapeutics Inc., priority 2021, published 2025)"}
{"tested_on": "Human osteosarcoma U20S cells", "experiment": "Assay to measure lysosome and autolysosome formation (acidic vesicle formation, LysoView/LysoTracker staining)", "format": "cell-based", "details": "Homo sapiens; U2OS cells, concentration of 0.8 μM; read-out: Activity (percentage increase in acidic vesicle formation over the DMSO-treated control), Table 2", "method": "(§1) Lysosomes play a fundamental role in the autophagic pathway by fusing with autophagosomes and creating ‘autolysosomes’ in order to digest their contents. Stimulation of lysosome and autolysosome formation by a compound is indicative of a stimulation of autophagy. The ability of compounds to stimulate lysosome and autolysosome formation, and thus autophagy, in live cells was assessed via fluorescent microscopy using various fluorescent stains for labelling and tracking acidic organelles (including lysosomes and autolysosomes) such as: LysoView™ 650 (70059 and 70059-T, Biotium), LysoViewTM633 (70058 and 70058-T, Biotium) and LysoTracker™ Deep Red (L12492, ThermoFisher Scientific). The cellular phenotype was quantitatively assessed for the induction of acidic vesicle formation and compared to a non-treated control, thus providing a measure of the ability of the compound under investigation to stimulate autophagy.\n(§2) Representative procedure using LysoView™633 dye or LysoTracker™ Deep Red dye: Human osteosarcoma U20S cells (40,000 cells/well) were seeded in a 24 well glass bottom plate (Sensoplate, Greiner Bio-One) and were incubated overnight in a humidified atmosphere at 37° C. and 5% CO2. Cells were grown in DMEM (Gibco) supplemented with 10% Fetal Bovine Serum (FBS) and 100 units/ml penicillin and 100 μg/ml streptomycin (Invitrogen). After the attachment period, cells were treated with different compounds of interest (at various concentrations in DMSO) or DMSO (non-treated control) in cell culture medium and were incubated for 24 hours. Compound-containing medium was removed and cells were incubated with pre-warmed cell culture medium containing 1× LysoView™ 633 (70058 and 70058-T, Biotium) or 50 nM LysoTracker™ Deep Red (L12492, ThermoFisher Scientific) for 45 minutes at 37° C. Finally, cell nuclei were stained for 10 minutes using Hoechst 33342 (1 μg/mL) and then the medium was replaced with fresh medium. The 24 well plate was then fitted into a heated stage on the microscope and cells maintained at 37° C. Images were captured using appropriate filter set for Cy5 and DAPI detection with the EVOS M7000 Microscope (ThermoFisher Scientific). The cellular phenotype was visually assessed for the induction of acidic vesicle formation relative to the non-treated control; multiple images were acquired and analyzed using ImageJ or Cell Profiler.", "units": {"activation at 0.8 µM": "%"}}
{"smiles": "CCCN(C(=O)c1csc(-c2cnn(-c3cccc(OC(F)(F)F)c3)c2)n1)[C@H]1CCNC1", "note": "[Compound 25, N-propyl-N-[(3S)-pyrrolidin-3-yl]-2-{1-[3-(trifluoromethoxy)phenyl]-1H-pyrazol-4-yl}-1,3-thiazole-4-carboxamide]", "activation at 0.8 µM": "10 to 30"}
{"smiles": "CCCN(C(=O)c1csc(-c2cnn(-c3cccc(OC(F)(F)F)c3)c2)n1)[C@@H]1CCNC1", "note": "[Compound 26, N-propyl-N-[(3R)-pyrrolidin-3-yl]-2-{1-[3-(trifluoromethoxy)phenyl]-1H-pyrazol-4-yl}-1,3-thiazole-4-carboxamide]", "activation at 0.8 µM": "30 to 50"}
{"smiles": "CCCN(C(=O)c1csc(-c2cnn(-c3ccccc3C(F)(F)F)c2)n1)[C@H]1CCNC1", "note": "[Compound 82, N-propyl-N-[(3S)-pyrrolidin-3-yl]-2-{1-[2-(trifluoromethyl)phenyl]-1H-pyrazol-4-yl}-1,3-thiazole-4-carboxamide]", "activation at 0.8 µM": "30 to 50"}
{"smiles": "N[C@H]1CCCN(C(=O)c2csc(-c3cnn(-c4ccccc4)c3)n2)C1", "note": "[Compound 142, (3S)-1-[2-(1-phenyl-1H-pyrazol-4-yl)-1,3-thiazole-4-carbonyl]piperidin-3-amine]", "activation at 0.8 µM": "10 to 30"}
{"smiles": "CCCN(C(=O)c1csc(-c2cnn(-c3cccc(F)c3)c2)n1)[C@H]1CCNC1", "note": "[Compound 52, 2-[1-(3-fluorophenyl)-1H-pyrazol-4-yl]-N-propyl-N-[(3S)-pyrrolidin-3-yl]-1,3-thiazole-4-carboxamide]", "activation at 0.8 µM": "10 to 30"}
{"smiles": "CC(C)N(C(=O)c1csc(-c2cnn(-c3ccccc3Cl)c2)n1)C1CCNCC1", "note": "[Compound 66, 2-[1-(2-chlorophenyl)-1H-pyrazol-4-yl]-N-(piperidin-4-yl)-N-(propan-2-yl)-1,3-thiazole-4-carboxamide]", "activation at 0.8 µM": "10 to 30"}
{"smiles": "NCCOCCNC(=O)c1ccc(-c2cnn(-c3ccccc3)c2)o1", "note": "[Compound 101, N-[2-(2-aminoethoxy)ethyl]-5-(1-phenyl-1H-pyrazol-4-yl)furan-2-carboxamide]", "activation at 0.8 µM": "30 to 50"}
{"smiles": "CCCN(C(=O)c1csc(-c2cnn(-c3ccc(Cl)cc3)c2)n1)[C@@H]1CCNC1", "note": "[Compound 41, 2-[1-(4-chlorophenyl)-1H-pyrazol-4-yl]-N-propyl-N-[(3R)-pyrrolidin-3-yl]-1,3-thiazole-4-carboxamide]", "activation at 0.8 µM": "10 to 30"}
{"smiles": "CCCN(C(=O)c1csc(-c2ccc(-c3ccccc3)s2)n1)[C@H]1CCNC1", "note": "[Compound 69, 2-(5-phenylthiophen-2-yl)-N-propyl-N-[(3S)-pyrrolidin-3-yl]-1,3-thiazole-4-carboxamide]", "activation at 0.8 µM": "30 to 50"}
{"smiles": "CCCN(C(=O)c1csc(-c2cnn(-c3ccccc3)c2)c1)[C@@H]1CCNC1", "note": "[Compound 36, 5-(1-phenyl-1H-pyrazol-4-yl)-N-propyl-N-[(3R)-pyrrolidin-3-yl]thiophene-3-carboxamide]", "activation at 0.8 µM": "10 to 30"}
{"smiles": "O=C(NC[C@@H]1CCNC1)c1cc(-c2cnn(-c3ccccc3)c2)cs1", "note": "[Compound 16, 4-(1-phenyl-1H-pyrazol-4-yl)-N-{[(3R)-pyrrolidin-3-yl]methyl}thiophene-2-carboxamide]", "activation at 0.8 µM": "10 to 30"}
{"smiles": "Cc1ccccc1-n1cc(-c2nc(C(=O)N(C(C)C)C3CCNCC3)cs2)cn1", "note": "[Compound 84, 2-[1-(2-methylphenyl)-1H-pyrazol-4-yl]-N-(piperidin-4-yl)-N-(propan-2-yl)-1,3-thiazole-4-carboxamide]", "activation at 0.8 µM": "10 to 30"}
{"smiles": "NC[C@H]1CCCN1C(=O)c1ccc(-c2cnn(-c3ccccc3)c2)o1", "note": "[Compound 11, 1-[(2R)-1-[5-(1-phenyl-1H-pyrazol-4-yl)furan-2-carbonyl]pyrrolidin-2-yl]methanamine]", "activation at 0.8 µM": "10 to 30"}
{"smiles": "O=C(NC1CNC1)c1csc(-c2cnn(-c3ccccc3)c2)n1", "note": "[Compound 180, N-(azetidin-3-yl)-2-(1-phenyl-1H-pyrazol-4-yl)-1,3-thiazole-4-carboxamide]", "activation at 0.8 µM": "30 to 50"}
{"smiles": "NC[C@H]1CCCN1C(=O)c1csc(-c2cnn(-c3ccc(C(F)(F)F)cc3)c2)n1", "note": "[Compound 76, 1-[(2R)-1-(2-{1-[4-(trifluoromethyl)phenyl]-1H-pyrazol-4-yl}-1,3-thiazole-4-carbonyl)pyrrolidin-2-yl]methanamine]", "activation at 0.8 µM": "10 to 30"}
{"smiles": "CCCN(C(=O)c1csc(-c2cnn(-c3ccccc3)c2)c1)[C@H]1CCNC1", "note": "[Compound 42, 5-(1-phenyl-1H-pyrazol-4-yl)-N-propyl-N-[(3S)-pyrrolidin-3-yl]thiophene-3-carboxamide]", "activation at 0.8 µM": "10 to 30"}
{"smiles": "CCCN(C(=O)c1csc(-c2cnn(-c3ccccc3Cl)c2)n1)[C@H]1CCNC1", "note": "[Compound 89, 2-[1-(2-chlorophenyl)-1H-pyrazol-4-yl]-N-propyl-N-[(3S)-pyrrolidin-3-yl]-1,3-thiazole-4-carboxamide]", "activation at 0.8 µM": "10 to 30"}
{"smiles": "CCCN(C(=O)c1cc(-c2cnn(-c3ccccc3)c2)c[nH]1)C1CCNC1", "note": "(stereo not shown) [Compound 123, 4-(1-phenyl-1H-pyrazol-4-yl)-N-propyl-N-(pyrrolidin-3-yl)-1H-pyrrole-2-carboxamide]", "activation at 0.8 µM": "> 100"}
{"smiles": "CCCN(C(=O)c1csc(-c2cnn(-c3ccccc3F)c2)n1)[C@@H]1CCNC1", "note": "[Compound 97, 2-[1-(2-fluorophenyl)-1H-pyrazol-4-yl]-N-propyl-N-[(3R)-pyrrolidin-3-yl]-1,3-thiazole-4-carboxamide]", "activation at 0.8 µM": "30 to 50"}
{"smiles": "NCCCCCNC(=O)c1cc(-c2cnn(-c3ccccc3)c2)cs1", "note": "[Compound 17, N-(5-aminopentyl)-4-(1-phenyl-1H-pyrazol-4-yl)thiophene-2-carboxamide]", "activation at 0.8 µM": "10 to 30"}
{"smiles": "CC(C)N(C(=O)c1csc(-c2cnn(-c3ccccc3)c2)n1)[C@@H]1CCNC1", "note": "[Compound 312, 2-(1-phenyl-1H-pyrazol-4-yl)-N-(propan-2-yl)-N-[(3R)-pyrrolidin-3-yl]-1,3-thiazole-4-carboxamide]", "activation at 0.8 µM": "50 to 100"}
{"smiles": "CCCN(C(=O)c1csc(-c2cnc(-c3ccccc3)o2)n1)[C@H]1CCNC1", "note": "[Compound 35, 2-(2-phenyl-1,3-oxazol-5-yl)-N-propyl-N-[(3S)-pyrrolidin-3-yl]-1,3-thiazole-4-carboxamide]", "activation at 0.8 µM": "10 to 30"}
{"smiles": "CCCN(C(=O)c1csc(-c2ccc(-c3ccccc3)s2)n1)C1CCNC1", "note": "(stereo not shown) [Compound 122, 2-(5-phenylthiophen-2-yl)-N-propyl-N-(pyrrolidin-3-yl)-1,3-thiazole-4-carboxamide]", "activation at 0.8 µM": "> 100"}
{"smiles": "CCCN(C(=O)c1csc(-c2cnn(-c3cccc(Cl)c3)c2)n1)[C@H]1CCNC1", "note": "[Compound 31, 2-[1-(3-chlorophenyl)-1H-pyrazol-4-yl]-N-propyl-N-[(3S)-pyrrolidin-3-yl]-1,3-thiazole-4-carboxamide]", "activation at 0.8 µM": "10 to 30"}
{"smiles": "COc1cccc(-n2cc(-c3nc(C(=O)N4CCC[C@@H]4CN)cs3)cn2)c1", "note": "[Compound 50, 1-[(2R)-1-{2-[1-(3-methoxyphenyl)-1H-pyrazol-4-yl]-1,3-thiazole-4-carbonyl}pyrrolidin-2-yl]methanamine]", "activation at 0.8 µM": "50 to 100"}
{"smiles": "CCCN(C(=O)c1csc(-c2cnn(-c3ccncc3)c2)n1)[C@@H]1CCNC1", "note": "[Compound 23, N-propyl-2-[1-(pyridin-4-yl)-1H-pyrazol-4-yl]-N-[(3R)-pyrrolidin-3-yl]-1,3-thiazole-4-carboxamide]", "activation at 0.8 µM": "10 to 30"}
{"smiles": "CCCN(C(=O)c1csc(-c2cnn(-c3ccc(Cl)cc3)c2)n1)[C@H]1CCNC1", "note": "[Compound 40, 2-[1-(4-chlorophenyl)-1H-pyrazol-4-yl]-N-propyl-N-[(3S)-pyrrolidin-3-yl]-1,3-thiazole-4-carboxamide]", "activation at 0.8 µM": "10 to 30"}
{"smiles": "O=C(c1csc(-c2cnn(-c3ccccc3)c2)n1)N1CCNCC1", "note": "[Compound 104, 1-[2-(1-phenyl-1H-pyrazol-4-yl)-1,3-thiazole-4-carbonyl]piperazine]", "activation at 0.8 µM": "10 to 30"}
{"tested_on": "Human osteosarcoma U20S cells", "experiment": "Assay to measure lysosome and autolysosome formation (acidic vesicle formation, LysoView/LysoTracker staining)", "format": "cell-based", "details": "Homo sapiens; U2OS cells, concentration of 0.8 μM; read-out: Activity (percentage increase in acidic vesicle formation), Table 2a Preferred compounds", "method": "as §1, §2", "units": {"activation at 0.8 µM": "%"}}
{"smiles": "CCCN(C(=O)c1cc(-c2cnn(-c3ccccc3)c2)c[nH]1)C1CCNC1", "note": "(stereo not shown) [Compound 123, 4-(1-phenyl-1H-pyrazol-4-yl)-N-propyl-N-(pyrrolidin-3-yl)-1H-pyrrole-2-carboxamide]", "activation at 0.8 µM": "50 to 100"}
{"smiles": "CCCN(C(=O)c1csc(-c2ccc(-c3ccccc3)s2)n1)C1CCNC1", "note": "(stereo not shown) [Compound 122, 2-(5-phenylthiophen-2-yl)-N-propyl-N-(pyrrolidin-3-yl)-1,3-thiazole-4-carboxamide]", "activation at 0.8 µM": "50 to 100"}
{"smiles": "COc1cccc(-n2cc(-c3nc(C(=O)N4CCC[C@@H]4CN)cs3)cn2)c1", "note": "[Compound 50, 1-[(2R)-1-{2-[1-(3-methoxyphenyl)-1H-pyrazol-4-yl]-1,3-thiazole-4-carbonyl}pyrrolidin-2-yl]methanamine]", "activation at 0.8 µM": "50 to 100"}
{"tested_on": "Human osteosarcoma U20S cells", "experiment": "Assay to measure lysosome and autolysosome formation (acidic vesicle formation, LysoView/LysoTracker staining)", "format": "cell-based", "details": "U2OS cells, concentration of 0.8 μM", "method": "as §1, §2"}
{"smiles": "CCCN(C(=O)c1cc(-c2cnn(-c3ccccc3)c2)c[nH]1)C1CCNC1", "note": "(stereo not shown) [Compound 123, 4-(1-phenyl-1H-pyrazol-4-yl)-N-propyl-N-(pyrrolidin-3-yl)-1H-pyrrole-2-carboxamide]", "Activity (percentage increase in acidic vesicle formation), Table 2b More preferred compounds": "++++ (a percentage increase in acidic vesicle of greater than 100% over the DMSO-treated control)"}
{"smiles": "CCCN(C(=O)c1csc(-c2ccc(-c3ccccc3)s2)n1)C1CCNC1", "note": "(stereo not shown) [Compound 122, 2-(5-phenylthiophen-2-yl)-N-propyl-N-(pyrrolidin-3-yl)-1,3-thiazole-4-carboxamide]", "Activity (percentage increase in acidic vesicle formation), Table 2b More preferred compounds": "++++ (a percentage increase in acidic vesicle of greater than 100% over the DMSO-treated control)"}
{"tested_on": "Human osteosarcoma U20S cells", "experiment": "Assay to measure lysosome and autolysosome formation (acidic vesicle formation, LysoView/LysoTracker staining)", "format": "cell-based", "details": "U20S cells, relative to DMSO-treated control (10 μM)", "method": "as §1, §2"}
{"smiles": "CC(C)N(C(=O)c1csc(-c2cnn(-c3ncccn3)c2)n1)C1CCNCC1", "note": "[Compound 329, N-(piperidin-4-yl)-N-(propan-2-yl)-2-[1-(pyrimidin-2-yl)-1H-pyrazol-4-yl]-1,3-thiazole-4-carboxamide]", "increase in acidic vesicle formation": "only a slight increase"}
